Entries after “also recorded” stand apart in the source; their conditions may differ.
How the values were obtained:
recombinant human EPHA2 = recombinant human EPHA2 (Homo sapiens (Human), UniProt P29317); assay: Z′-LYTE FRET-based in vitro biochemical kinase assay; details: recombinant human EPHA2 expressed in insect cells; read-out: Human EPHA2 IC50 (nM) ± SD
Method: Several analogs were synthesized based on the structure of TL5-135 for further study. […] For the data in Table 1, compounds were subjected to in vitro biochemical kinase assays done using recombinant human ephrin type-A receptor 2 (EPHA2) (expressed in insect cells) in a Z′-LYTE® FRET-based kinase assay. P. falciparum Dd2 EC50 was determined using the standard 72 hour SYBR Green I assay (Dd2 Proliferation Assay) as known in the art. […] The structures of compoundsTL5-134, TL5-139, and TL5-145 are shown below.
In vitro biochemical kinase assays were done using recombinant human EPHA2 (expressed in insect cells) in a Z′-LYTE® FRET-based kinase assay. P. falciparum Dd2 EC50 was determined using the standard 72 h SYBR Green I assay.

P. berghei ANKA = assay: Treatment of established P. berghei ANKA luciferase infection in mice, IVIS imaging; assay type: in vivo; details: 50 mg/kg p.o. once daily for 4 days from 72 hours post-infection; imaging day 7
Method: Mice infected with P. berghei ANKA (10^3 iRBC) expressing luciferase were treated with 50 mg/kg TL5-135 or chloroquine orally once daily 72 hours post-infection for 4 days. Imaging was done 7 days after infection following a 150 mg/kg D-luciferin injection with an IVIS.

[1] = tested on: P. berghei luc sporozoites (Pb-Luc); assay: Prophylaxis assay, single IV dose 6 hours before Pb-Luc sporozoite infection; assay type: in vivo, mice
Method: (§1) TL5-135 was dissolved or resuspended in a suspending vehicle consisting of 30% DMSO, 1% methylcellulose, 0.5% TWEEN-80, and 68.5% ultrapure water. GNF179 was resuspended in 30% DMSO, 30% PEG400, 5% TWEEN-80, 35% saline, and administered intravenously.
(§2) For prophylaxis assays, a single dose of […] was administrated 6 hours before infection. For therapeutic assays, in a 4-day's Peters test, 4 doses (each 15 mg/kg) were administrated 6, 18, 30, and 42 hours post infection.
(§3) The antimalarial activity was measured as a percent reduction in parasitemia from day one until day twelve post-infection.
Infection was initiated using 100,000 P. berghei luc sporozoites (Pb-Luc). The drugs were administered IV at 50 mg/kg, single dose 6 hours prior. I: infected, UI: uninfected.
(§4) Groups of 5 mice were infected with 100,000 Pb-Luc sporozoites by IV injection. Prophylactic (single dose of 50 mg/kg through IV injection, 6 hour before infection) and therapeutic (4-day Peters test, 4 doses of 15 mg/kg each time were administrated post-infection at 6, 18, 30, and 42 hours post infection (hpi) and the activity of the compounds was evaluated. See FIG. 8A. The parasitemia was estimated after flow cytometric enumeration of rodent malaria parasite Pb-Luc-infected red blood cells (RBS) stained with SYBR Green I, from day 3 until 20.
(§5) TL5-135 and GNF179 antimalarial compounds were tested against Pb-Luc sporozoites. Prophylactic activity (single dose of 15 mg/kg through an IV injection, 6 hours before infection) and therapeutic activity (4-day Peters test, 4 doses of 15 mg/kg each time was administrated at 6, 18, 30, and 42 hpi of the TL5-135 antimalarial compound was evaluated. As before, groups of five mice were infected with 100,000 Pb-Luc sporozoites by IV injection. The parasitemia was estimated after flow cytometric enumeration of rodent malaria parasite Pb-Luc-infected red blood cells (RBS) stained with SYBR Green I, from day 3 until day 20. See FIG. 8B.

Pb-Luc sporozoites = assay: Therapeutic assay, 4-day Peters test against Pb-Luc sporozoites; assay type: in vivo, mice; details: therapeutic, 4 doses of 15 mg/kg
Method: as §1, §2, §3
However, the mice treated with TL5-135 as a therapeutic had about 2.4% parasitemia after 12 days post-infection (all negative control mice died between days 11-13). The parasitemia on day 21 (21 days post-infection) for the group of mice was 35%.
as §4, §5

P. falciparum strain Dd2 = assay: Stage specificity assay; assay type: cell-based; details: for Stage specific action, treated at early ring stage: 400 nM (5×EC50) at 6 hours post infection for 12 hours
Method: Asexual stage P. falciparum cultures were synchronized by MACS magnetic column, followed 3 hours later by treatment with 5% sorbitol to select for rings. Six hours after invasion, parasites were plated onto a 96-well plate at 1% parasitemia and 1% hematocrit, maintained at 37° C. in 5% CO2, and compound was added at 5×EC50 to the 6 HPI wells. Every 12 hours, until reinvaded rings (54 HPI), thin blood smear slides for Giemsa-stain were taken, and samples were washed and fixed in 4% paraformaldehyde in PBS with 0.04% glutaraldehyde. At the conclusion of the timepoints, all samples were permeabilized with 0.25% Triton X-100 before being treated with 50 μg/mL RNase A and stained with 500 nM YOYO-1. Samples were then washed, and flow cytometric analysis was performed with a CytoFLEX S™, collecting 100,000 events per sample. Analysis was performed with FlowJo™ software Version 10.
The stage specific action of the prioritized hits was determined as follows. Synchronized cultures of P. falciparum strain Dd2 were exposed to 400 nM (5×EC50) compound at 6 hours post infection for 12 hours and fixed samples labeled with YOYO-1 dye were analyzed by flow cytometry and microscopy using Giemsa-stained thin smears.

P. falciparum Dd2 = assay: Rate of killing assay; assay type: cell-based; details: 10×EC50, 12-hour exposure then wash off
Method: Asynchronous P. falciparum Dd2 cultures were plated at 1% parasitemia, 4% hematocrit into a 24-well plate, incubated at 37° C. in 5% CO2. Wells were treated with 10×EC50 of compound for 12, 24, or 48 hours before the compound was removed. Every 24 hours thereafter for 4 days total, culture samples were washed in 0.5% BSA and stained with 1×SYBR Green I and 60 μM MitoTracker Deep Red FM for 20 minutes at 37° C. After another wash in 0.5% BSA, samples were resuspended in PBS and analyzed via flow cytometry with a CytoFLEX S™, with 100,000 events recorded per sample. For gating, the following controls were used: uninfected RBCs, untreated culture, DHA-treated culture, and untreated culture without MitoTracker stain. Viable parasite percentage was determined by finding the fraction of SYBR Green/MitoTracker double positive cells from the total events. Analysis was performed with FlowJo software Version 10.
Asynchronous cultures of P. falciparum Dd2 parasites were treated with 10×EC50 of the indicated compound for 12 hours prior to compound wash off. Flow cytometry with SYBR Green I (nuclear dye) and Mitotracker Deep Red FM (mitochondria staining) was done after compound wash-off every 24 hours after for […] (100,000 events/sample) to track parasitemia (data from 3 biological replicates±SEM).

in vitro = in vitro ADME; details: mouse liver microsomes; read-out: t1/2 in mouse liver microsomes

recombinant human EPHA2, sequence (P29317 24-976): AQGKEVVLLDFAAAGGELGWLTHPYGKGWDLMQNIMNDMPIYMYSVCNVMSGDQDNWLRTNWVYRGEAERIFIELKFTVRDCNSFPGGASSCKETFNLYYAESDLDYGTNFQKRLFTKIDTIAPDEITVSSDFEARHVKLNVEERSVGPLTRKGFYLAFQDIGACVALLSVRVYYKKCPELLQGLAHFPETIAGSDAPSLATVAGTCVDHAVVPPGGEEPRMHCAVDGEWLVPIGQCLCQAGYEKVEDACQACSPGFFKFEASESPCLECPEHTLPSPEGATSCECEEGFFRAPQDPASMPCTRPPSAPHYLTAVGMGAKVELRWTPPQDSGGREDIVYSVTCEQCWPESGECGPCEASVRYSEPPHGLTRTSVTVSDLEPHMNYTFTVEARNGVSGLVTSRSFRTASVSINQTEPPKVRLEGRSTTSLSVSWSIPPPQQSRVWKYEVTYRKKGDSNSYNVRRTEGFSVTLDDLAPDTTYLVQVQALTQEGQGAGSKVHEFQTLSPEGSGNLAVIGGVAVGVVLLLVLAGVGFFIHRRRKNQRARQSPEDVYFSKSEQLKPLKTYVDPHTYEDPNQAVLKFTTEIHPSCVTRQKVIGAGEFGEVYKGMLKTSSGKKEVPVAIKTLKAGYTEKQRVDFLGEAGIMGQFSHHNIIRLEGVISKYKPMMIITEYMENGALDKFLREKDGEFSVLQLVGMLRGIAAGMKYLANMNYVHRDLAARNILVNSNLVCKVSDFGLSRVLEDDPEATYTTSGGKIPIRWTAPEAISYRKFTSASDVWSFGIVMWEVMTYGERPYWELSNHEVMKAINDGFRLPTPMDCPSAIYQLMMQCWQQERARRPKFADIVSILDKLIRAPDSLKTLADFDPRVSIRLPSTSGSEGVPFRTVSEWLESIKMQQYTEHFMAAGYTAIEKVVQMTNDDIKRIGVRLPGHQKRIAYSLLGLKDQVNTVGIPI

CCN1CCN(Cc2ccc(NC(=O)c3cc(Cl)cc(NC(=O)c4cncc(-c5cccs5)c4)c3)cc2C(F)(F)F)CC1 [TL5-135]
IC50 (recombinant human EPHA2): > 10000 nM | Effect on established P. berghei infection (P. berghei ANKA): eliminates established P. berghei ANKA infection; also recorded: eliminate established Plasmodium. berghei infections in mice | Condition of mice after prophylactic treatment ([1]; single dose 15 mg/kg 6 hours before infection, after 22 days): still healthy and alive | Prophylactic activity ([1]; single dose 50 mg/kg IV 6 hours prior to infection with 100,000 Pb-Luc sporozoites): has prophylactic activity; also recorded: prevent infection | Parasitemia 12 days post-infection (Pb-Luc sporozoites; 12 days post-infection): about 2.4% | Parasitemia on day 21 (Pb-Luc sporozoites; 21 days post-infection): 35% | Stage specific action, treated at early ring stage (P. falciparum strain Dd2): blocks ring to trophozoite maturation | Stage specific action, treated at early ring stage (P. falciparum strain Dd2; listed as TL-135): block ring to trophozoite maturation | Stage specific action, added at trophozoite and schizont stages (P. falciparum strain Dd2; data not shown): blocks maturation of asexual parasites | Killing profile (P. falciparum Dd2): pronounced irreversible killing | Killing profile (P. falciparum Dd2; listed as TL-135): exhibited a killing effect | half-life (in vitro): 1.32 h

— patent US20250195508A1, “COMPOUNDS AND COMPOSITIONS FOR ANITMALARIAL THERAPEUTIC AND PROPHYLACTIC USE” (UNIVERSITY OF CENTRAL FLORIDA RESEARCH FOUNDATION, INC., priority 2022, published 2025)
